Activity data for 9 compounds are collected here from patent US20240150339A1, “Compounds and Their Use as PDE4 Activators” (Mironid Limited, priority 2021, published 2024).

This experiment has as its system m-IMCD3 cells. The experiment in a line: Inhibition of PGE2-stimulated in vitro cyst formation in 3D culture of m-IMCD3 cells. It is filed as cell-based, mouse. Conditions: Mus musculus, mIMCD3, 144 h; 10 μM test compound; mean cyst area (%) compared to 100% for (DMSO + PGE2) and 0% for DMSO control; 100 nM PGE2; 6 days; read-out: % Cyst area after incubation with 10 μM test compound. As to the method: HEK 293 and MDCK cells (Public Health England, Cell Culture Collections) were maintained in Dulbecco's Modified Eagle's Medium (DMEM) supplemented with 10% (v/v) fetal bovine serum (FBS) (Seralab), 2 mM L-glutamine and 100 U/ml penicillin streptomycin cocktail (ThermoFisher); termed complete media. Clonal HEK 293 cell lines were maintained in complete media supplemented with 0.6 mg/mL G418 (Enzo Life Sciences). Mouse inner medullary collecting duct (m-IMCD3) cells [American Type Culture Collection (ATCC)] were maintained in media consisting of DMEM/Hams F-12 50/50 Mix (DMEM F12; Corning) supplemented with penicillin streptomycin cocktail (100 U/ml) and FBS (10% v/v) (DMEM F12-10% FBS).
The mouse Inner Medullary Collecting Duct cell line (m-IMCD3) spontaneously forms cystic spheroids in 3D culture with a Type 1 collagen/Matrigel extracellular matrix. This process can be stimulated with agents which raise intracellular cAMP, such as PGE2, and is used as an in vitro model for the formation of cystic structures in the kidneys of patients with ADPKD.
Rat Collagen I (Fisher Scientific) is prepared on ice by neutralising with 1M NaOH and diluting with a 2×volume of DMEM/F12+10% FBS for coating plate (coating mix) and a 2.2 volume of DMEM/F12+10% FBS for cell plating (plating mix). This is mixed 1:1.1 with ice cold Matrigel (Corning) for coating plates (coating mix), and 1:0.95 with Matrigel for cell plating (plating mix).
The assay is conducted in the wells of a 96-well plate culture dish using a total volume of 130 μl of collagen/Matrigel/DMEM F12-10% FBS suspension in growth media for each matrix plug per individual well. Initially, 30 μl of collagen/Matrigel/DMEM F12-10% FBS (coating mix) is added into the well of a 96 well plate and the collagen is set to a gel by incubating at 37° C. for at least 15 minutes. A second layer of 100 μl collagen/Matrigel suspension (plating mix) containing m-IMCD3 cells (2.75×10^6 m-IMCD3 cells per 96-well plate) is layered over the coating mix and the collagen/Matrigel/cell mix again set to a gel by incubating at 37° C. Cell cultures are maintained at 37° C. in an atmosphere of 5% CO2, 95% air.
Between 18 and 24h after plating, test compound(s) as DMSO stock solutions [0.1% (v/v) final DMSO concentration] and PGE2 (100 nM final concentration) in DMEM F12-10% FBS are added in quadruplicate wells per condition. Media, togetherwith the test compound and PGE2 are replenished after 2 or 3 days. After 6 days of culture z stack images of the wells are captured using the Nikon Eclipse Ti2-E microscope. Nikon General Analysis software is used to measure the following parameters in each well: the mean cyst area, the number of cysts, and the total cyst area.
PDE4 long form activators inhibited in vitro cyst formation in m-IMCD3 cells. Data are shown in FIG. 2 and Table 5 as mean cyst area (%), compared to 100% for (DMSO+PGE2) and 0% for DMSO control.
Turning to `O=C(NC1CCCC1)c1ccc2nc(N3CCCC4NCCC43)sc2c1` (stereo not drawn) [Example 258, N-cyclopentyl-2-(octahydro-4H-pyrrolo[3,2-b]pyridin-4-yl)benzo[d]thiazole-6-carboxamide], the activity at 10 µM turned out to be 11%.
As to `CN1C[C@@H]2CN(c3nc4ccc(C(=O)NC5CCCCC5)cc4s3)C[C@@H]2C1` [Example 261, N-cyclohexyl-2-((3aR,6aS)-5-methylhexahydropyrrolo[3,4-c]pyrrol-2 (1H)-yl)benzo[d]thiazole-6-carboxamide], the activity at 10 µM is 3%.
On to `CN(C(=O)c1ccc2nc(C3CCNCC3)sc2c1)C1CCCC1` [Example 271, N-cyclopentyl-N-methyl-2-(piperidin-4-yl)benzo[d]thiazole-6-carboxamide], for which the activity at 10 µM is 27%.
For the compound `CN1CCC(c2nc3ccc(C(=O)N[C@@H]4CCC[C@H]4O)cc3s2)CC1` [Example 274, N-[(1R,2R)-2-hydroxycyclopentyl]-2-(1-methylpiperidin-4-yl)benzo[d]thiazole-6-carboxamide], the activity at 10 µM was 16%.
For `CCN1CCC(c2nc3ccc(C(=O)NCc4ccncc4)cc3s2)CC1` [Example 275, 2-(1-ethylpiperidin-4-yl)-N-(pyridin-4-ylmethyl)benzo[d]thiazole-6-carboxamide], the activity at 10 µM is -2%.
For the compound `CC(C)OCCNC(=O)c1ccc2nc(N3C4CCC3CNC4)sc2c1` [Example 278, 2-(3,8-diazabicyclo[3.2.1]octan-8-yl)-N-(2-isopropoxyethyl)benzo[d]thiazole-6-carboxamide], the activity at 10 µM is 18%.
As for `CCN1CC(c2nc3ccc(C(=O)NC4CCCC4)cc3s2)C1` [Example 281, N-cyclopentyl-2-(1-ethylazetidin-3-yl)benzo[d]thiazole-6-carboxamide], the activity at 10 µM worked out at 10%.
With `O=C(NC1CCCC1)c1ccc2sc(C3CCNCC3)nc2c1` [Example 283, N-cyclopentyl-2-(piperidin-4-yl)benzo[d]thiazole-5-carboxamide] the figure was 14%; with `CN1CCC(c2nc3ccc(S(=O)(=O)NC4CCCC4)cc3s2)CC1` [Example 288, N-cyclopentyl-2-(1-methylpiperidin-4-yl)benzo[d]thiazole-6-sulfonamide], 11%.
